Measurements reported in article PMC6151383 (Molecules : A Journal of Synthetic Chemistry and Natural …, 2017).
≈ marks a conversion by molar mass, not a printed value.

Tests used:
[1] = system: Trichophyton interdigitale 445; assay: Antifungal microdilution broth MIC, T. interdigitale; type: cell-based; conditions: SI = IC50 (HepG2)/MIC, Trichophyton interdigitale
[2] = system: Klebsiella pneumoniae D 11750/08; design: method as in PMID 22365879; conditions: 48 h incubation; cited from earlier work
[3] = system: Trichosporon asahii 1188; design: method as in PMID 22365879; conditions: 48 h incubation; cited from earlier work
[4] = system: Candida glabrata 20/I; design: method as in PMID 22365879; conditions: 48 h incubation; cited from earlier work
[5] = system: M. kansasii; design: method as in PMID 22365879; conditions: range over M. kansasii strains; cited from earlier work
[6] = system: Enterococcus faecalis J 14365/08; design: method as in PMID 22365879; conditions: 48 h incubation; cited from earlier work
[7] = system: Escherichia coli CCM 4517; design: method as in PMID 22365879; conditions: 48 h incubation; cited from earlier work
[8] = system: Mycobacterium avium 330/88; design: method as in PMID 22365879; conditions: cited from earlier work
[9] = system: M. kansasii 6509/96; design: method as in PMID 22365879; conditions: cited from earlier work
[10] = system: Candida tropicalis 156; design: method as in PMID 22365879; conditions: 48 h incubation; cited from earlier work
[11] = system: Candida albicans ATCC 44859; design: method as in PMID 22365879; conditions: 48 h incubation; cited from earlier work
[12] = system: Mycobacterium kansasii 235/80; design: method as in PMID 22365879; conditions: cited from earlier work
[13] = system: Staphylococcus aureus CCM 4516/08; design: method as in PMID 22365879; conditions: 48 h incubation; cited from earlier work
[14] = system: Lichtheimia corymbifera 272; design: method as in PMID 22365879; conditions: 48 h incubation; cited from earlier work
[15] = system: Trichophyton interdigitale 445; design: method as in PMID 22365879; conditions: cited from earlier work
[16] = system: ESBL-positive Klebsiella pneumoniae J 14368/08; design: method as in PMID 22365879; conditions: 48 h incubation; cited from earlier work
[17] = system: Candida krusei E28; design: method as in PMID 22365879; conditions: 48 h incubation; cited from earlier work
[18] = system: Mycobacterium tuberculosis 331/88 (H37Rv); design: method as in PMID 22365879; conditions: cited from earlier work
[19] = system: Pseudomonas aeruginosa CCM 1961; design: method as in PMID 22365879; conditions: 48 h incubation; cited from earlier work
[20] = system: Aspergillus fumigatus 231; design: method as in PMID 22365879; conditions: 48 h incubation; cited from earlier work
[21] = system: Staphylococcus epidermidis H 6966/08; design: method as in PMID 22365879; conditions: 48 h incubation; cited from earlier work

O=S(=O)(Nc1ncccn1)c1ccc(N=Cc2cc(Cl)ccc2O)cc1 [Compound 2c, 4-[(5-Chloro-2-hydroxybenzylidene)amino]-N-(pyrimidin-2-yl)benzenesulfonamide]
SI for TI [1]: inactive | MIC KP 48 h [2]: >500 µM | MIC TA 48 h [3]: 125 µM (≈ 48.6 µg/mL) | MIC CG 48 h [4]: 125 µM (≈ 48.6 µg/mL) | MIC, M. kansasii strains [5]: 8 to 32 µM | MIC EF 48 h [6]: >500 µM | MIC EC 48 h [7]: >500 µM | MIC M. avium 330/88 14 d ([8]; 14 d incubation): 125 µM (≈ 48.6 µg/mL) | MIC M. avium 330/88 21 d ([8]; 21 d incubation): 125 µM (≈ 48.6 µg/mL) | MIC M. kansasii 6509/96 7 d ([9]; 7 d incubation): 16 µM (≈ 6.22 µg/mL) | MIC M. kansasii 6509/96 14 d ([9]; 14 d incubation): 32 µM (≈ 12.4 µg/mL) | MIC M. kansasii 6509/96 21 d ([9]; 21 d incubation): 32 µM (≈ 12.4 µg/mL) | MIC CT 48 h [10]: >500 µM | MIC CA 48 h [11]: 125 µM (≈ 48.6 µg/mL) | MIC M. kansasii 235/80 7 d ([12]; 7 d incubation): 8 µM (≈ 3.11 µg/mL) | MIC M. kansasii 235/80 14 d ([12]; 14 d incubation): 16 µM (≈ 6.22 µg/mL) | MIC M. kansasii 235/80 21 d ([12]; 21 d incubation): 32 µM (≈ 12.4 µg/mL) | MIC SA 48 h [13]: 250 µM (≈ 97.2 µg/mL) | MIC LC 48 h [14]: >500 µM | MIC TI 72 h ([15]; 72 h incubation): >500 µM | MIC TI 120 h ([15]; 120 h incubation): >500 µM | MIC KP-E 48 h [16]: >500 µM | MIC CK 48 h [17]: >500 µM | MIC Mtb. 331/88 14 d ([18]; 14 d incubation): 125 µM (≈ 48.6 µg/mL) | MIC Mtb. 331/88 21 d ([18]; 21 d incubation): 250 µM (≈ 97.2 µg/mL) | MIC PA 48 h [19]: >500 µM | MIC AF 48 h [20]: >500 µM | MIC SE 48 h [21]: >500 µM
